# According to patent publication US20240353414A1 (Calico Life Sciences LLC, priority 2021, published 2024):
# How the values were obtained:
# mitochondrial pH [1] = conditions: same cell type given the same drug in a dish
# mitochondrial pH [2] = conditions: BALB/cJ mouse, subcutaneous tumor expressing mito-pH-Countdown, before vs after administration of BAM15
# Description: Left panel: Raw time lapse animation (grayscale) of the back of a BALB/cJ mouse carrying a subcutaneous tumor expressing mito-pH-Countdown, measured in the GFP channel of a simple fluorescence photography system. […] Orange/blue/green box marks a region expressing mito-pH-Countdown. Right panel: Average fluorescent signal vs. time for two measurements before(orange, dots) and two measurements after (blue or green, triangles) administration of the mitochondrial uncoupler BAM15. […] Light gray lines show calibration measurements for pH 7.5 (solid) and pH 8 (dashed).
smiles,measurement,setting,value
Fc1ccccc1Nc1nc2nonc2nc1Nc1ccccc1F [BAM15],shift in mitochondrial pH,mitochondrial pH [1],~1 pH unit
same,drug-induced shift in mitochondrial pH,mitochondrial pH [2],roughly 0.2 pH units
